Test results taken from US12133529B2, “Herbicidal phenylethers” (BASF SE, priority 2017, dated 2024).

Legend:
Assay type in all cases: in vivo
[1] = system: AMARE (Amaranthus retroflexus); assay: greenhouse herbicidal activity, post-emergence treatment; conditions: post-emergence method, application rate 16 g/ha, scale from 0 to 100, read-out: herbicidal activity against AMARE
Excerpt: (§1) The seeds of the test plants were sown separately for each species. For the post-emergence treatment, the test plants were first grown to a height of 3 to 15 cm, depending on the plant habit, and only then treated with the active ingredients which had been suspended or emulsified in water. For this purpose, the test plants were either sown directly and grown in the same containers, or they were first grown separately as seedlings and transplanted into the test containers a few days prior to treatment. Depending on the species, the plants were kept at 10-25° C. or 20-35° C., respectively. The test period extended over 2 to 4 weeks. During this time, the plants were tended, and their response to the individual treatments was evaluated. Evaluation was carried out using a scale from 0 to 100. 100 means no emergence of the plants, or complete destruction of at least the aerial moieties, and 0 means no damage, or normal course of growth. A good herbicidal activity is given at values of at least 70 and a very good herbicidal activity is given at values of at least 85. [table]

SETVI (Setaria viridis) = assay: as above; conditions: post-emergence method, application rate 16 g/ha, scale from 0 to 100, read-out: herbicidal activity against SETVI
Excerpt: as §1

[2] = system: ECHCG (Echinocloa crus-galli); assay: as above; conditions: scale from 0 to 100; for pest or weed control at 16 g/ha: Echinochloa crus-galli, post-emergence method, application rate 16 g/ha, read-out: herbicidal activity against ECHCG; for damages unwanted plants ECHCG: post-emergence application, 2 g/ha, control 21 days after treatment (greenhouse)
Excerpt: as §1

[3] = system: CHEAL (Chenopodium album); assay: as above; conditions: post-emergence method, application rate 16 g/ha, scale from 0 to 100, read-out: herbicidal activity against CHEAL
Excerpt: as §1

ZEAMX (Zea mays) [4] = assay: greenhouse crop plant damage, post-emergence treatment; conditions: post-emergence application, 2 g/ha, control 21 days after treatment (greenhouse), scale from 0 to 100
Excerpt: as §1

[5] = system: AMARE (Amaranthus retroflexus); assay: greenhouse herbicidal activity, pre-emergence treatment; conditions: pre-emergence application, 32 g/ha, control 21 days after treatment (greenhouse), scale from 0 to 100
Excerpt: (§2) The seeds of the test plants were sown separately for each species. For the pre-emergence treatment, the active ingredients, which had been suspended or emulsified in water, were applied directly after sowing by means of finely distributing nozzles. The containers were irrigated gently to promote germination and growth and subsequently covered with transparent plastic hoods until the plants had rooted. This cover caused uniform germination of the test plants, unless this had been impaired by the active ingredients. Depending on the species, the plants were kept at 10-25° C. or 20-35° C., respectively. The test period extended over 2 to 4 weeks. During this time, the plants were tended, and their response to the individual treatments was evaluated. Evaluation was carried out using a scale from 0 to 100. 100 means no emergence of the plants, or complete destruction of at least the aerial moieties, and 0 means no damage, or normal course of growth. A good herbicidal activity is given at values of at least 70 and a very good herbicidal activity is given at values of at least 85. [table]

ZEAMX (Zea mays) [6] = assay: greenhouse crop plant damage, pre-emergence treatment; conditions: pre-emergence application, 32 g/ha, control 21 days after treatment (greenhouse), scale from 0 to 100
Excerpt: as §2

Structure (SMILES)	pest or weed control at 16 g/ha [1] [%]	pest or weed control at 16 g/ha (SETVI (Setaria viridis)) [%]	pest or weed control at 16 g/ha [2] [%]	pest or weed control at 16 g/ha [3] [%]	damages crop plants ZEAMX (ZEAMX (Zea mays) [4])	damages unwanted plants ECHCG [2]	damages unwanted plants AMARE [5]	damages crop plants ZEAMX (ZEAMX (Zea mays) [6])
CCOC(=O)COc1ncccc1Oc1cc(-c2nn(C)c(OC(F)F)c2Cl)c(F)cc1Cl [Example 1, ethyl 2-[[3-[2-chloro-5-[4-chloro-5-(difluoromethoxy)-1-methyl-pyrazol-3-yl]-4-fluoro-phenoxy]-2-pyridyl]oxy]acetate]	≥ 85	≥ 85	≥ 85	≥ 85				
CCOC(=O)COc1ncccc1Oc1cc(-n2nc3n(c2=O)CCCC3)c(Cl)cc1Cl [Example 2, ethyl 2-[[3-[2,4-dichloro-5-(3-oxo-5,6,7,8-tetrahydro-[1,2,4]triazolo[4,3-a]pyridin-2-yl)phenoxy]-2-pyridyl]oxy]acetate]	≥ 85	≥ 85	≥ 85	≥ 85				
CCOC(=O)COc1ncccc1Oc1cc(-n2c(=O)c(C)c(C(F)(F)F)n(C)c2=O)c(F)cc1[N+](=O)[O-] [Example 4, Ethyl 2-[[3-[5-[3,5-dimethyl-2,6-dioxo-4-(trifluoromethyl)pyrimidin-1-yl]-4-fluoro-2-nitro-phenoxy]-2-pyridyl]oxy]acetate]	≥ 85	≥ 85	≥ 85	≥ 85				
COC(=O)C(OC)Oc1ccccc1Oc1cc(-n2nc3n(c2=O)CCCC3)c(Cl)cc1Cl (stereo not drawn) [Example 7]	≥ 85	≥ 85	≥ 85	≥ 85				
O=C(O)COc1ncccc1Oc1cc(-n2nc3n(c2=O)CCCC3)c(Cl)cc1Cl [Example 8]	≥ 85	≥ 85	≥ 85	≥ 85				
CCOC(=O)C(C)Oc1ncccc1Oc1cc(-n2nc3n(c2=O)CCCC3)c(Cl)cc1Cl (stereo not drawn) [Example 9]	≥ 85		≥ 85	≥ 85				
CCOC(=O)COc1ncccc1Oc1cc(-c2nn(C)c(C(F)(F)F)cc2=O)c(F)cc1Cl [Example 15]	≥ 85	≥ 85	≥ 85	≥ 85				
CCOC(=O)COc1ccccc1Oc1cc(-n2c(=O)c(C)c(C(F)(F)F)n(C)c2=O)c(F)cc1Cl [Example 16]	≥ 85	≥ 85	≥ 85	≥ 85	10	100		
CCOC(=O)COc1ccccc1Oc1cc(-n2c(=S)cc(C(F)(F)F)n(C)c2=O)c(F)cc1Cl [Example 17]	≥ 85	≥ 85	≥ 85	≥ 85			100	0
CCOC(=O)COc1ncccc1Oc1cc(-c2ncc(C(F)(F)F)cc2Cl)c(F)cc1Cl [Example 18]	≥ 85	≥ 85	≥ 85	≥ 85				
O=C(O)COc1ncccc1Oc1cc(-c2ncc(C(F)(F)F)cc2Cl)c(F)cc1Cl [Example 19]	≥ 85	≥ 85	≥ 85	≥ 85				
CCOC(=O)COc1ccccc1Oc1cc(-n2c(=O)cc(C(F)(F)F)n(C)c2=O)c(F)cc1Cl [compound a-9, reference compound]					70	98	100	40
